Where “and” joins values, the source holds several entries; their conditions need not be identical. Equal entries are not always repeated. Inconclusive results and toxic doses are left out. Cut-off read from the data, not from the text of the source: active = T/C of 150% or more; inactive = T/C below 125%.
Tested on: L1210 leukemia ip in BDF1 mice, survival T/C
Assay: NCI In Vivo Anticancer Drug Screen. Data for tumor model L1210 Leukemia (intraperitoneal) in B6D2F1 (BDF1) mice
Settings: endpoint: mean survival time, higher = longer survival
Procedure, shortened: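 Antitumor effect is assessed in tumor-bearing animals. Survival in the compound arm is compared with a vehicle-dosed control arm and expressed as their quotient.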

[1] = dose: 50.0 mg/kg/injection, schedule: Q01DX009 (ip), vehicle: saline with Tween-80
[2] = dose: 100.0 mg/kg/injection, schedule: Q01DX009 (ip), vehicle: saline with Tween-80
[3] = dose: 100.0 mg/kg/injection, schedule: Q04DX003 (ip), vehicle: saline
[4] = dose: 200.0 mg/kg/injection, schedule: Q04DX003 (ip), vehicle: saline

Measured: T/C

CNC(=O)c1cc(NC(=O)c2ccc(C(=O)Nc3cc(C(=O)NC)cc(C4=NCCN4)c3)cc2)cc(C2=NCCN2)c1
inactive: dose: 16.0 mg/kg/injection, schedule: Q01DX015 (ip), vehicle: methylcellulose (MC) 90 % of control | dose: 25.0 mg/kg/injection, schedule: Q01DX009 (ip), vehicle: carboxymethylcellulose (CMC) 96 % of control | dose: 31.0 mg/kg/injection, schedule: Q01DX015 (ip), vehicle: methylcellulose (MC) 94 % of control | dose: 50.0 mg/kg/injection, schedule: Q01DX009 (ip), vehicle: carboxymethylcellulose (CMC) 96 % of control | dose: 62.0 mg/kg/injection, schedule: Q01DX015 (ip), vehicle: methylcellulose (MC) 94 % of control and 120 % of control | dose: 100.0 mg/kg/injection, schedule: Q01DX001 (ip), vehicle: carboxymethylcellulose (CMC) 96 % of control | dose: 100.0 mg/kg/injection, schedule: Q01DX009 (ip), vehicle: carboxymethylcellulose (CMC) 113 % of control | dose: 125.0 mg/kg/injection, schedule: Q01DX015 (ip), vehicle: methylcellulose (MC) 94 % of control and 102 % of control | dose: 200.0 mg/kg/injection, schedule: Q01DX001 (ip), vehicle: carboxymethylcellulose (CMC) 91 % of control | dose: 200.0 mg/kg/injection, schedule: Q01DX009 (ip), vehicle: carboxymethylcellulose (CMC) 98 % of control | dose: 500.0 mg/kg/injection, schedule: Q01DX015 (ip), vehicle: methylcellulose (MC) 106 % of control

COCC1=CC(=O)CCC1CC1OC1(C)C (configuration not stated)
inactive: [1] 96 % of control | [2] 96 % of control | dose: 200.0 mg/kg/injection, schedule: Q01DX009 (ip), vehicle: saline with Tween-80 96 % of control

Cc1c(O)cccc1F
inactive: dose: 25.0 mg/kg/injection, schedule: Q04DX002 (ip), vehicle: Klucel (hydroxypropylcellulose) (HPC) 98 % of control | dose: 50.0 mg/kg/injection, schedule: Q04DX002 (ip), vehicle: Klucel (hydroxypropylcellulose) (HPC) 102 % of control | dose: 100.0 mg/kg/injection, schedule: Q04DX002 (ip), vehicle: Klucel (hydroxypropylcellulose) (HPC) 111 % of control and 120 % of control

COCCCNc1ncnc2[nH]ncc12
inactive: dose: 15.0 mg/kg/injection, schedule: Q01DX015 (ip), vehicle: saline 95 % of control | dose: 30.0 mg/kg/injection, schedule: Q01DX015 (ip), vehicle: saline 101 % of control | dose: 50.0 mg/kg/injection, schedule: Q04DX003 (ip), vehicle: saline 96 % of control | dose: 60.0 mg/kg/injection, schedule: Q01DX015 (ip), vehicle: saline 97 % of control | dose: 100.0 mg/kg/injection, schedule: Q01DX001 (ip), vehicle: saline 106 % of control | [3] 98 % of control | dose: 120.0 mg/kg/injection, schedule: Q01DX015 (ip), vehicle: saline 110 % of control | dose: 200.0 mg/kg/injection, schedule: Q01DX001 (ip), vehicle: saline 106 % of control | [4] 100 % of control | dose: 400.0 mg/kg/injection, schedule: Q01DX001 (ip), vehicle: saline 116 % of control

CC1c2cccc(Cl)c2C(=O)c2c(Cl)cccc21
inactive: dose: 100.0 mg/kg/injection, schedule: Q01DX009 (ip), vehicle: Klucel (hydroxypropylcellulose) (HPC) 102 % of control | dose: 100.0 mg/kg/injection, schedule: Q04DX003 (ip), vehicle: Klucel (hydroxypropylcellulose) (HPC) 108 % of control | dose: 200.0 mg/kg/injection, schedule: Q01DX009 (ip), vehicle: Klucel (hydroxypropylcellulose) (HPC) 102 % of control | dose: 200.0 mg/kg/injection, schedule: Q04DX003 (ip), vehicle: Klucel (hydroxypropylcellulose) (HPC) 102 % of control | dose: 400.0 mg/kg/injection, schedule: Q01DX009 (ip), vehicle: Klucel (hydroxypropylcellulose) (HPC) 110 % of control | dose: 400.0 mg/kg/injection, schedule: Q04DX003 (ip), vehicle: Klucel (hydroxypropylcellulose) (HPC) 96 % of control

CN(C)/C=N\c1c(C#N)c(CC#N)nn1-c1ccccc1
inactive: dose: 25.0 mg/kg/injection, schedule: Q01DX009 (ip), vehicle: saline with Tween-80 98 % of control | dose: 25.0 mg/kg/injection, schedule: Q04DX003 (ip), vehicle: saline with Tween-80 103 % of control | [1] 100 % of control | dose: 50.0 mg/kg/injection, schedule: Q04DX003 (ip), vehicle: saline with Tween-80 93 % of control | [2] 88 % of control | dose: 100.0 mg/kg/injection, schedule: Q04DX003 (ip), vehicle: saline with Tween-80 98 % of control and 99 % of control

CC(Br)CNC(=O)c1cc([N+](=O)[O-])cc([N+](=O)[O-])c1 (configuration not stated)
inactive: dose: 75.0 mg/kg/injection, schedule: Q04DX003 (ip), vehicle: Klucel (hydroxypropylcellulose) (HPC) 96 % of control | dose: 150.0 mg/kg/injection, schedule: Q04DX003 (ip), vehicle: Klucel (hydroxypropylcellulose) (HPC) 92 % of control | dose: 300.0 mg/kg/injection, schedule: Q04DX003 (ip), vehicle: Klucel (hydroxypropylcellulose) (HPC) 94 % of control

O=C(CSc1ccccc1)NCc1cnccn1
inactive: dose: 100.0 mg/kg/injection, schedule: Q01DX009 (ip), vehicle: saline 103 % of control | [3] 92 % of control | dose: 200.0 mg/kg/injection, schedule: Q01DX009 (ip), vehicle: saline 102 % of control | [4] 105 % of control | dose: 400.0 mg/kg/injection, schedule: Q04DX003 (ip), vehicle: saline 105 % of control
